pEC50, pKd: −log10 of the molar value. *1 amine or outer side, *2 acyl side, *3 side chain or, on linkers, in order; H or OH if unused. Where a SMILES comes first, the peptide text is derived from it. Bridges are numbered along the chain shown (N, C = ends). [ ]: non-standard residue; d: D form. The star is where a group is joined. ξ: configuration not given here. X2 = CC(C)C(NC(=O)CCN1C(=O)C=CC1=O)C(=O)N[C@@H](C)C(=O)Nc1ccc(CN*)cc1; Trp(2-yl) = O=C([C@H](Cc1c([*:3])[nH]c2ccccc12)N[*:1])[*:2]; Ile(4R-OH,5-OH) = C[C@H]([C@H](N)C(=O)O)[C@@H](O)CO; X3 = CC([C@H](N[*:1])C(=O)[*:2])[C@@H](O)CO; X1 = O=C([C@@H]1CC(O)CN1[*:1])[*:2]; ξD = NC(CC(=O)O)C(=O)O; ξC = NC(CS)C(=O)O
Experiments:
[1] = Reactivity with cysteine in PBS buffer (RP-HPLC C18); assay type: physicochemical; conditions: 1 mg/mL, 10 mg/mL cysteine in PBS, pH 7.4 at 37° C., 24 h, 48 h and 6 d
Description: 1 mg/mL α-amanitin 10 mg/mL cysteine in PBS, pH 7.4 at 37° C. after 24 h, 48 h and 6 d RP-HPLC C18.
1 mg/mL β-amanitin 10 mg/mL cysteine in PBS, pH 7.4 at 37° C. after 24 h, 48 h and 6 d RP-HPLC C18.
1 mg/mL amanin 10 mg/mL cysteine in PBS, pH 7.4 at 37° C. after 24 h, 48 h and 6 d RP-HPLC C18.
1 mg/mL HDP 30.2105, 10 mg/mL cysteine in PBS, pH 7.4 at 37° C. after 24 h, 48 h and 6 d RP-HPLC C18; *impurity.
FIG. 7 summarizes the results from FIGS. 3 to 6; x axis: reaction time in hours; y axis: amount of remaining amatoxin variant in %.

[2] = system: SKBR-3 cells; test: Cytotoxicity on SKBR-3 after plasma or PBS stressing of reference Thiomab conjugates; assay type: cell-based; conditions: 4 days, SKBR-3 cells 96 h
Description: Test items were incubated in human plasma at 37° C. for 0 an 4 days. Cytotoxicity assay were performed on SKBR-3 cells for 96 h.
Test items were incubated in mouse plasma at 37° C. for 0 an 4 days. Cytotoxicity assay were performed on SKBR-3 cells for 96 h.
Test items were incubated in PBS at 37° C. for 0 an 4 days. Cytotoxicity assay were performed on SKBR-3 cells for 96 h. All ADCs show adequate stability to non-enzymatic environment.

[3] = Western-Blot stability of reference Thiomab D265C conjugates in plasma and PBS; assay type: in vitro ADME; conditions: conjugated to reference Thiomab D265C; 37° C. in human plasma, mouse plasma and PBS for 0, 4 and 10 days
From the text: Detection was done with a polyclonal anti-amanitin antibody from rabbit and an anti-rabbit antibody conjugated to horseradish peroxidase.

[4] = system: MM.1S Luc xenograft; test: Disseminating intravenous MM.1S Luc xenograft model, single dose; assay type: in vivo, mouse
Description: When reaching a mean flux of 1.5×10^6-1×10^7 (10-14 days after implantation) 8-10 mice per group were treated with single doses (2 and 4 mg/kg) of J22.9-ISY-D265C-30.1699, J22.9-ISY-D265C-30.2115 or PBS as control. Luciferase activity was monitored by non-invasive bio-imaging twice weekly, 10 minutes after administration of luciferin (10 μl/g body weight). (B) Individual tumor growth curves for each animal are depicted. Individual Growth curves are shown for groups treated with 2 mg/kg (solid line) and 4 mg/kg (dashed line) of J22.9-ISY-D265C-30.2115.
When reaching a mean flux of 1.5×10^6-1×10^7 (10-14 days after implantation) 8-10 mice per group were treated with single doses (0.1, 0.3, 1 and 2 mg/kg) of J22.9-ISY-D265C-30.2115 or PBS as control. Luciferase activity was monitored by non-invasive bio-imaging twice weekly, 10 minutes after administration of luciferin (10 μl/g body weight). (B) Individual tumor growth curves for each animal are depicted. Growth curves are shown for groups treated with 1 mg/kg (solid line) and 2 mg/kg (dashed line) of J22.9-ISY-D265C-30.2115.
The antitumor activity of J22.9-ISY-D265C-30.1699 and J22.9-ISY-D265C-30.2115 was further tested in a disseminating intravenous MM.1S Luc xenograft model at doses of 2 and 4 mg/kg. […]

[5] = system: BCMA-positive NCI-H929 cells; test: Plasma stability: cell-based cytotoxicity assay after incubation in plasma or PBS; design: species or system human
Description: J22.9-ISY-D265C-30.2115 (A) and J22.9-ISY-D265C-30.1699 (B) were incubated in PBS for control, or human, cynomolgus or mouse plasma for 0, 4, and 10 days at 37° C. and analysed for remaining cellular toxicity potential using BCMA-positive NCI-H929 cells.
Plasma stability of both ADC variants was confirmed in a cell-based cytotoxicity assay on BCMA-positive NCI-H929 cells (see Table 2) after incubation for 0, 4 and 10 days in PBS, human, cynomolgus or mouse plasma.

[6] = system: MM.1S Luc xenograft; test: Disseminating MM.1S Luc xenograft model, comparison with J22.9-ISY-MMAF; assay type: in vivo
Description: The antitumor activity of J22.9-ISY-D265C-30.2115 was compared to the interchain conjugate J22.9-ISY-MMAF in a disseminating intravenous MM.1S Luc xenograft model at doses of 1 and 4 mg/kg.

[7] = system: MM.1S Luc, and KMS-11; test: Timeline cytotoxicity experiment 24 to 120 hours on the two cell lines; assay type: cell-based, human; conditions: measured after 24, 46, 72, 96, and 120 hours
Description: Cytotoxicity potentials of J22.9-ISY-D265C-30.2115 was compared to the interchain conjugate J22.9-ISY-MMAF on two BCMA-positive MM cell lines (MM.1S Luc, and KMS-11). […] The efficacy of both compounds was compared in a timeline experiment on the two cell lines. Cytotoxicity was measured after 24, 46, 72, 96, and 120 hours (see FIGS. 26B+26C).

[8] = system: NCI-H929 subcutaneous xenograft; test: NCI-H929 subcutaneous xenograft, repeated dose; assay type: in vivo, mouse
Description: Once tumor volume reached 80 mm^3, mice (9 animals per group) were treated intravenously either once per week (1×/week), every two weeks (1×/2 weeks) or every 3 weeks (1×/3 weeks) with J22.9-ISY-D265C-30.2115 (doses 0.25 mg/kg, 0.5 mg/kg or 1 mg/kg) or were treated with PBS as control. In addition, 2 mg/kg doses were applied twice per week (2×/week). Tumor volumes were monitored twice per week.
The efficacy of drug substance J22.9-ISY-D265C-30.2115 was further evaluated in a repeated dose setting in the subcutaneous NCI-H929 xenograft model. Compared to the single dose application described above, doses were reduced to 1, 0.5 and 0.25 mg/kg and applied either once per week (1×/week), every two weeks (1×/2 weeks) or every three weeks (1×/3 weeks).

[9] = system: NCI-H929 subcutaneous xenograft; test: NCI-H929 subcutaneous xenograft, single dose; assay type: in vivo, mouse
Description: Once tumor volume reached 80 mm^3, mice (8 animals per group) were treated intravenously with single doses (2 or 4 mg/kg) of J22.9-ISY-D265C-30.2115 or J22.9-ISY-D265C-30.1699, or were treated with PBS as control.. Tumor volumes were monitored twice per week.
Antitumor activity of J22.9-ISY-D265C-30.2115 and J22.9-ISY-D265C-30.1699 was tested in a subcutaneous NCI-H929 (see Table 3 for details of cell line) mouse xenograft model.

[10] = assay type: in vitro ADME; conditions: 37° C. for 0, 4, and 10 days in PBS, human, cynomolgus or mouse plasma
Description: Stability of J22.9-ISY-D265C-30.2115 and J22.9-ISY-D265C-30.1699 was tested following incubation at 37° C. for 0, 4, and 10 days in PBS, human, cynomolgus or mouse plasma.

[11] = Dose-escalating tolerability study in non-human primates; assay type: in vivo, cynomolgus monkeys; conditions: repeated dosing of 3 mg/kg
Description: ALT: alanine transaminase; AST: aspartate transaminase; LDH: lactate dehydrogenase.
J22.9-ISY-D265C-30.2115 and J22.9-ISY-D265C-30.1699 were assessed for a dose-escalating tolerability study in cynomolgus monkeys. Groups of 3 animals were injected with J22.9-ISY-D265C-30.1699 at days 1 (0.3 mg/kg), 22 (1 mg/kg), and 44 (3 mg/kg), or with J22.9-ISY-D265C-30.2115 at days 1 (0.3 mg/kg), 21 (1 mg/kg), and 42, 64, 84, 106 (3 mg/kg each time point). Animals were monitored over time for biochemical and haematological blood parameters (see FIG. 25), urinalysis, body weight, food consumption, clinical signs and mortality. In addition, blood samples were collected for pharmacokinetic studies. At the end of the experiments tissue samples are used for histopathological examinations.

[12] = target: RNA-polymerase II (Homo sapiens, UniProt P24928); conditions: read-out: KD of complex with RNA-polymerase II; cited from earlier work

α-amanitin
reactivity with cysteine [1]: strong reactivity

CC[C@H](C)[C@@H]1NC(=O)CNC(=O)[C@@H]2Cc3c([nH]c4ccccc34)SCC(NC(=O)CNC1=O)C(=O)NC(CC(=O)O)C(=O)N1CC(O)C[C@H]1C(=O)N[C@@H](C(C)[C@@H](O)CO)C(=O)N2 (some centres unmarked) [HDP 30.2105] (cyclo(GIG[ξC][ξD][X1][X3][Trp(2-yl)]); thioether 4-8)
reactivity with cysteine [1]: complete absence of reactivity

amanin
reactivity with cysteine [1]: reduced reactivity

CC[C@H](C)[C@@H]1NC(=O)CNC(=O)[C@H]2Cc3c([nH]c4cc(OCc5ccc(NC(=O)[C@H](C)NC(=O)[C@@H](NC(=O)CCN6C(=O)C=CC6=O)C(C)C)cc5)ccc34)[S@+]([O-])CC(NC(=O)CNC1=O)C(=O)N[C@@H](CC(N)=O)C(=O)N1CC(O)C[C@H]1C(=O)N[C@@H]([C@@H](C)[C@@H](O)CO)C(=O)N2 (some centres unmarked) [HDP 30.1699]
cytotoxicity after plasma stressing ([2]; human plasma at 37° C.): remarkable loss of cytotoxicity | cytotoxicity after plasma stressing ([2]; mouse plasma at 37° C.): remarkable loss of cytotoxicity | stability / cross-links (Western-Blot) [3]: considerable cross-links and loss of the amatoxin moiety

CC[C@H](C)[C@@H]1NC(=O)CNC(=O)[C@@H]2Cc3c([nH]c4ccccc34)SCC(NC(=O)CNC1=O)C(=O)N[C@@H](CC(=O)NCc1ccc(NC(=O)[C@H](C)NC(=O)C(NC(=O)CCN3C(=O)C=CC3=O)C(C)C)cc1)C(=O)N1CC(O)C[C@H]1C(=O)N[C@@H]([C@@H](C)[C@@H](O)CO)C(=O)N2 (stereo partly drawn) [HDP 30.2115] (cyclo(D(X2)[X1][Ile(4R-OH,5-OH)][Trp(2-yl)]GIG[ξC]); thioether 4-8)
cytotoxicity after plasma stressing ([2]; human plasma at 37° C.): still picomolar activity | cytotoxicity after plasma stressing ([2]; mouse plasma at 37° C.): remains almost unchanged | stability / cross-links (Western-Blot) [3]: high stability and significantly reduced cross-links

J22.9-ISY-D265C-30.2115: Thiomab antibody J22.9-ISY-D265C conjugated to amatoxin-linker HDP 30.2115 via engineered cysteine 265, cleavable linker
tumor response ([4]; single dose application of 0.3 mg/kg): complete tumor eradication | slight regrowth of tumor after initial response for over 90 days ([4]; single doses of 2 and 4 mg/kg): 1 of 10 | pEC50 ([5]; PBS pH 7.4, day 0, 37° C.): 9.62 | pEC50 ([5]; PBS pH 7.4, day 4, 37° C.): 9.62 | pEC50 ([5]; PBS pH 7.4, day 10, 37° C.): 9.39 | pEC50 ([5]; cynomolgus plasma, day 0, 37° C.): 9.60 | pEC50 ([5]; cynomolgus plasma, day 4, 37° C.): 9.60 | pEC50 ([5]; human plasma, day 0, 37° C.): 9.55 | pEC50 ([5]; human plasma, day 4, 37° C.): 9.57 | pEC50 ([5]; human plasma, day 10, 37° C.): 9.00 | influence of incubation on cytotoxic potential ([5]; incubation in PBS or plasma up to 10 days): almost no influence on the cytotoxic potential | pEC50 ([5]; mouse plasma, day 0, 37° C.): 9.92 | pEC50 ([5]; mouse plasma, day 4, 37° C.): 9.74 | pEC50 ([5]; mouse plasma, day 10, 37° C.): 9.22 | time to regrowth of the tumor ([6]; 1 mg/kg): 50 days | time to regrowth of the tumor ([6]; 4 mg/kg): 100 days | time to initial response ([6]; 1 and 4 mg/kg (both doses)): 10 days | efficacy compared with MMAF conjugate ([6]; in vivo): better efficacy in terms of tumor free survival | time at which full cytotoxicity is unfolded [7]: after 96 and 120 hours | tumor response ([8]; repeated 2 mg/kg dosing): complete tumor remission | tumor response ([8]; repeatedly applied doses of 1 mg/kg): tumor regression | anti-tumor efficacy compared to J22.9-ISY-D265C-30.1699 ([9]; 2 mg/kg): slightly superior anti-tumor efficacy | statistically significant body weight reduction ([9]; single doses 2 or 4 mg/kg): No statistically significant body weight reduction was observed | initial response followed by regrowth of tumor ([9]; single treatment 2 mg/kg iv): 6 of 8 | complete tumor remission ([9]; single treatment 4 mg/kg iv): 7 of 8 | stability (Western Blot) [10]: particularly high stability | liver enzymes or LDH on repeated dosing [11]: did not result in further increase

β-amanitin
reactivity with cysteine [1]: strong reactivity

amanitin
pKd [12]: 8.52
